Like-named read-outs stand apart in the source and are kept apart here.
Columns and labels:
[1] = test system: hiPSC-CMs (iCell-Cardiomyocytes^2); test: MEA impedance (cytotoxicity readout) in hiPSC-CMs
[2] = test system: hiPSC-CMs (iCell-Cardiomyocytes^2); test: ApoLive-Glo Multiplex Assay: viability (live cells); assay type: cell-based, human
Method: (§1) iCell-Cardiomyocytes^2 (Fujifilm Cellular Dynamics Inc., Madison, WI, United States) were seeded into 96 well-plates (Greiner Bio One, ref. 655946) according to the manufacturer instructions, at a density of 50 k cells/well. […] To assess effects on viability and cytotoxicity, two assay combination kits were used: 1) RealTime-Glo™ Annexin V Apoptosis and Necrosis Assay [Promega, JA1011 ([Kupcho et al., 2019])] and 2) ApoLive-Glo Multiplex Assay [Promega, G6410 ([Flörkemeier et al., 2022])]. The assays were performed according to manufacturer instructions. The experiments were repeated at 24, 48, and 72 h in order to assess any time-dependent change in live cells or activation of cell-death pathways.
(§2) The nonparametric Wilcoxon-Mann Whitney Test was used to compare the percent change from the baseline (Δ%) value between the group treated with the compound at a given concentration and the group treated with the DMSO at each matching time points. A two-sided test at 5% significance level was considered. […] To assess the physiological relevance of changes, a tolerance interval of DMSO experiments was calculated at each time point, for each parameter. Specifically, the Δ% values of all (pooled) DMSO wells (N = 81) were used to obtain the non-parametric 80%–95% (p = 0.80 & 1-α = 0.95) tolerance interval (TI). TIs indicate an interval where, with a certain confidence level (1- α = 0.95), a specified proportion (p = 0.80) of percent change for DMSO data falls. The lower and upper limits based on the TI values were used as cut-offs for the interpretation of the changes. For the cytotoxicity assays, measurements of fluorescence (after background fluorescence subtraction) from wells treated with the compounds were normalized by the average value of vehicle experiments (DMSO 0.1%) to obtain a DMSO-corrected, delta/delta percent change. Experiments from each condition, as delta/delta percent, were averaged and expressed as mean ± SD. Statistical analysis was performed using a non-parametric test (Kruskal-Wallis) and each treatment condition was compared to the relative DMSO 0.1%. Differences were considered statistically significant when the p-value was smaller than 0.05.

[3] = test system: caspases 3,7 in hiPSC-CMs; test: ApoLive-Glo Multiplex Assay: apoptosis, caspases 3,7 activation; assay type: cell-based, human
Method: as §1, §2

[4] = test system: Annexin V activation in hiPSC-CMs; assay type: cell-based
Method: The assays were performed according to manufacturer instructions.
as §2, with “Specifically, the Δ% values of all (pooled) DMSO wells (N = 81) were used to obtain the non-parametric 80%–95% (p = 0.80 & 1-α = 0.95) tolerance interval (TI).” left out

[5] = test system: hiPSC-CMs (iCell-Cardiomyocytes^2); test: RealTime-Glo Annexin V Apoptosis and Necrosis Assay: necrosis; assay type: cell-based, human
Method: as §1, §2

[6] = free therapeutic Cmax in humans; ref FDA-approved drug packages, PharmaPendium; cited from earlier work

**Q.** With `COc1cccc2c1C(=O)c1c(O)c3c(c(O)c1C2=O)C[C@@](O)(C(=O)CO)C[C@@H]3O[C@H]1C[C@H](N)[C@H](O)[C@H](C)O1` [Doxorubicin] as the compound, how does the “Imp (impedance), % change from baseline” value ([1]; 0.1 µM, 2h) read?
**A.** 3±5%

**Q.** What about the “Imp (impedance), % change from baseline” value ([1]; 0.1 µM, 24h) of the same compound?
**A.** -8±5%

**Q.** And the “Imp (impedance), % change from baseline” value ([1]; 0.1 µM, 48h)?
**A.** -20±4%

**Q.** And the “Imp (impedance), % change from baseline” value ([1]; 0.1 µM, 72h)?
**A.** -27±4%

**Q.** And the “Imp (impedance), % change from baseline” value ([1]; 0.1 µM, 96h)?
**A.** -30±8%

**Q.** And the “Imp (impedance), % change from baseline” value ([1]; 0.3 µM, 2h)?
**A.** -1±1%

**Q.** And the “Imp (impedance), % change from baseline” value ([1]; 0.3 µM, 24h)?
**A.** -23±6 %

**Q.** And the “Imp (impedance), % change from baseline” value ([1]; 0.3 µM, 48h)?
**A.** -47±6 %

**Q.** What about the “Imp (impedance), % change from baseline” value ([1]; 0.3 µM, 72h) of the same compound?
**A.** -70±7 %

**Q.** What about the “decrease in the impedance signal” value ([1]; 0.3 µM, 72h) of the same compound?
**A.** ~70%

**Q.** What about the “Imp (impedance), % change from baseline” value ([1]; 0.3 µM, 96h) of the same compound?
**A.** -81±7 %

**Q.** What about the “Imp (impedance), % change from baseline” value ([1]; 1 µM, 2h) of the same compound?
**A.** -1±2%

**Q.** And the “Imp (impedance), % change from baseline” value ([1]; 1 µM, 24h)?
**A.** -56±4 %

**Q.** What about the “Imp (impedance), % change from baseline” value ([1]; 1 µM, 48h) of the same compound?
**A.** -86±1 %

**Q.** What about the “Imp (impedance), % change from baseline” value ([1]; 1 µM, 72h) of the same compound?
**A.** -89±2 %

**Q.** And the “Imp (impedance), % change from baseline” value ([1]; 1 µM, 96h)?
**A.** -89±2 %

**Q.** And the “Imp (impedance), % change from baseline” value ([1]; 3 µM, 72h)?
**A.** -87±0 %

**Q.** What about the “Imp (impedance), % change from baseline” value ([1]; 3 µM, 96h) of the same compound?
**A.** -88±1 %

**Q.** What about the “Imp (impedance), % change from baseline” value ([1]; 3 µM, 2h) of the same compound?
**A.** -2±0%

**Q.** What about the “Imp (impedance), % change from baseline” value ([1]; 3 µM, 24h) of the same compound?
**A.** -56±5 %

**Q.** And the “Imp (impedance), % change from baseline” value ([1]; 3 µM, 48h)?
**A.** -85±2 %

**Q.** What about the “Live Cells (viability), Mean±SD” value ([2]; 0.3 µM, 24h) of the same compound?
**A.** -7.1±16.9 Δ/Δ%

**Q.** And the “Live Cells (viability), Mean±SD” value ([2]; 0.3 µM, 48h)?
**A.** -9±11.9 Δ/Δ%

**Q.** What about the “drop in live cells assay” value ([2]; 0.3 µM, 72h) of the same compound?
**A.** ~40%

**Q.** And the “Live Cells (viability), Mean±SD” value ([2]; 1 µM, 24h)?
**A.** -10.5±16.2 Δ/Δ%

**Q.** What about the “number of live cells” value ([2]; 10 µM, 24, 48, 72 h) of the same compound?
**A.** strong impact on the number of live cells, further decreasing over time

**Q.** And the “Caspases 3, 7 (apoptosis activation), Mean±SD” value ([3]; 0.3 µM, 24h)?
**A.** 0.6±15.9 Δ/Δ%

**Q.** And the “Caspases 3, 7 (apoptosis activation), Mean±SD” value ([3]; 0.3 µM, 48h)?
**A.** 109.5±125.1 Δ/Δ%

**Q.** And the “Caspases 3, 7 (apoptosis activation), Mean±SD” value ([3]; 10 µM, 72h)?
**A.** 113±14.3 Δ/Δ%

**Q.** What about the “activation of caspases 3,7 (apoptosis)” value ([3]; 24, 48, 72 h) of the same compound?
**A.** induced the largest activation of caspases 3,7

**Q.** What about the “Annexin V (apoptosis activation), Mean±SD” value ([4]; 0.3 µM, 24h) of the same compound?
**A.** 24.6±24 Δ/Δ%

**Q.** What about the “Annexin V (apoptosis activation), Mean±SD” value ([4]; 0.3 µM, 48h) of the same compound?
**A.** 31.2±28.5 Δ/Δ%

**Q.** What about the “activation of Annexin V (apoptosis)” value ([4]; 24, 48, 72 h) of the same compound?
**A.** largest activation of caspases 3,7, and of Annexin V

**Q.** What about the “Necrosis, Mean±SD” value ([5]; 0.3 µM, 24h) of the same compound?
**A.** 9.8±45.2 Δ/Δ%

**Q.** And the “Necrosis, Mean±SD” value ([5]; 0.3 µM, 48h)?
**A.** 40.2±103.1 Δ/Δ%

**Q.** What about the “Necrosis, Mean±SD” value ([5]; 1 µM, 24h) of the same compound?
**A.** 9.8±27 Δ/Δ%

**Q.** What about the “Necrosis, Mean±SD” value ([5]; 1 µM, 48h) of the same compound?
**A.** 72.9±120.4 Δ/Δ%

**Q.** And the activation of necrosis ([5]; over time, especially at 72 h)?
**A.** also showed the activation of necrosis

**Q.** And the “Free Cmax” value [6]?
**A.** 7.4 µM

**Q.** What does the source list for `CCN(CC)CCNC(=O)c1c(C)[nH]c(/C=C2\C(=O)Nc3ccc(F)cc32)c1C` [Sunitinib]?
**A.** Imp (impedance), % change from baseline ([1]; 0.03 µM, 2h): 5±4%; Imp (impedance), % change from baseline ([1]; 0.03 µM, 24h): -12±3%; Imp (impedance), % change from baseline ([1]; 0.03 µM, 48h): -8±6%; Imp (impedance), % change from baseline ([1]; 0.03 µM, 72h): -8±4%; Imp (impedance), % change from baseline ([1]; 0.03 µM, 96h): -4±4%; Imp (impedance), % change from baseline ([1]; 0.1 µM, 2h): 6±3%; Imp (impedance), % change from baseline ([1]; 0.1 µM, 24h): -10±4%; Imp (impedance), % change from baseline ([1]; 0.1 µM, 48h): -7±4%; Imp (impedance), % change from baseline ([1]; 0.1 µM, 72h): -5±3%; Imp (impedance), % change from baseline ([1]; 0.1 µM, 96h): -2±3%; Imp (impedance), % change from baseline ([1]; 0.3 µM, 2h): 5±6%; Imp (impedance), % change from baseline ([1]; 0.3 µM, 24h): -7±3%; Imp (impedance), % change from baseline ([1]; 0.3 µM, 48h): -3±5%; Imp (impedance), % change from baseline ([1]; 0.3 µM, 72h): -3±2%; Imp (impedance), % change from baseline ([1]; 0.3 µM, 96h): -3±3%; Imp (impedance), % change from baseline ([1]; 1 µM, 2h): 12±7%; Imp (impedance), % change from baseline ([1]; 1 µM, 24h): -9±6%; Imp (impedance), % change from baseline ([1]; 1 µM, 48h): -7±7%; Imp (impedance), % change from baseline ([1]; 1 µM, 72h): -8±7%; Imp (impedance), % change from baseline ([1]; 1 µM, 96h): -5±6%; effect on impedance ([1]; all concentrations tested, up to 96 h): did not cause significant changes in the impedance signal; Live Cells (viability), Mean±SD ([2]; 1 µM, 24h): -12.5±1.8 Δ/Δ%; Live Cells (viability), Mean±SD ([2]; 1 µM, 48h): -8.8±2.9 Δ/Δ%; Live Cells (viability), Mean±SD ([2]; 1 µM, 72h): 5.8±5.9 Δ/Δ%; number of live cells ([2]; 3 µM): did not cause a relevant change; Live Cells (viability), Mean±SD ([2]; 3 µM, 72h): -21.4±3.7 Δ/Δ%; Live Cells (viability), Mean±SD ([2]; 3 µM, 24h): -1.8±19.3 Δ/Δ%; Live Cells (viability), Mean±SD ([2]; 3 µM, 48h): -13.1±9.7 Δ/Δ%; number of live cells ([2]; 10 µM, 24, 48, 72 h): significant decrease in the number of live cells; concentration at which decrease in live-cell count occurred, times the median fCmax ([2]; 48 h time point): higher than 300; Caspases 3, 7 (apoptosis activation), Mean±SD ([3]; 1 µM, 24h): 11±8.3 Δ/Δ%; Caspases 3, 7 (apoptosis activation), Mean±SD ([3]; 1 µM, 72h): 70.2±31.9 Δ/Δ%; Caspases 3, 7 (apoptosis activation), Mean±SD ([3]; 10 µM, 48h): 42.9±61.5 Δ/Δ%; Caspases 3, 7 (apoptosis activation), Mean±SD ([3]; 10 µM, 72h): -45±134.8 Δ/Δ%; Annexin V (apoptosis activation), Mean±SD ([4]; 1 µM, 24h): -7.5±2.1 Δ/Δ%; Annexin V (apoptosis activation), Mean±SD ([4]; 1 µM, 48h): -11.9±4.5 Δ/Δ%; Annexin V (apoptosis activation), Mean±SD ([4]; 1 µM, 72h): -0.3±7 Δ/Δ%; Annexin V (apoptosis activation), Mean±SD ([4]; 3 µM, 24h): 7±8.3 Δ/Δ%; Annexin V (apoptosis activation), Mean±SD ([4]; 10 µM, 48h): 14.8±35.2 Δ/Δ%; Annexin V (apoptosis activation), Mean±SD ([4]; 10 µM, 72h): -32.7±15.7 Δ/Δ%; Necrosis, Mean±SD ([5]; 1 µM, 72h): 88.5±23.2 Δ/Δ%; necrosis-driven cell death ([5]; especially at 10 µM): predominant necrosis-driven cell death; Free Cmax [6]: 0.03 µM

— paper PMC10364322, “Evaluation of chronic drug-induced electrophysiological and cytotoxic effects using human-induced pluripotent stem cell-derived cardiomyocytes (hiPSC-CMs)” (Frontiers in Pharmacology, 2023)
